From PMC7546441 (Nature chemical biology, 2019)

Experiments:
Bs GDH = Bs GDH (Bacillus subtilis, UniProt P12310); test: full steady-state kinetics, ordered bi-bi fit, […] nm; type: biochemical; conditions: cofactor and glucose varied, 35 mM Tris-HCl pH 8.0, 25 °C
XenA = XenA (Pseudomonas putida, UniProt Q9R9V9); test: initial rate, absorbance at […] nm; type: biochemical; conditions: 0.2 mM NMNH, 5 mM ketoisophorone, 200 mM phosphate pH 7.5, 37 °C

Bs GDH, sequence (P12310 whole entry): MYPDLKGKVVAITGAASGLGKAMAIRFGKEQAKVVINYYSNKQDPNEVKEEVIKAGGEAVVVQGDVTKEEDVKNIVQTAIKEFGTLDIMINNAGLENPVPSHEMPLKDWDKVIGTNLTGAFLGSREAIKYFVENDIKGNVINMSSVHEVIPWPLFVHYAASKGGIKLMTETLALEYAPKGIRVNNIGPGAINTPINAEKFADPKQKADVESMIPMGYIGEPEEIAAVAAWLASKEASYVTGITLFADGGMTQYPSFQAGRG

Compound	KB (Bs GDH)	initial rate, absorbance at 340 nm (XenA)
OC[C@H]1OC(O)[C@H](O)[C@@H](O)[C@@H]1O (stereo partly drawn) [D-glucose]	KA and KB are Michaelis constants for cofactor and substrate, respectively	
NC(=O)C1=CN([C@@H]2O[C@H](COP(=O)(O)O)[C@@H](O)[C@H]2O)C=CC1 [NMNH]		reduced NMN^+ (NMNH) was also well accepted by XenA
